According to article PMC7730205, “Different Sensitivity of Control and MICU1- and MICU2-Ablated Trypanosoma cruzi Mitochondrial Calcium Uniporter Complex to Ruthenium-Based Inhibitors” (International Journal of Molecular Sciences, 2020):

Experiments:
[1] = test system: T. cruzi epimastigotes; test: Epimastigote growth in LIT medium; assay type: cell-based, Trypanosoma cruzi; details: 1 µM, 5 µM and 10 µM
Description: We analyzed the growth rate of epimastigotes in LIT medium at different Ru265 concentrations (1 µM, 5 µM, and 10 µM). […] The presence of metabolic inhibitors affects attachment and invasion of T. cruzi trypomastigotes to mammalian cells since these are an active process which depends on the expenditure of parasite energy. Preincubation of trypomastigotes for 30 min with antimycin A, which blocks electron transport from cytochrome b to c1, decreased the ability of trypomastigotes to attach to glutaraldehyde-fixed cells (Figure 4b) and invade intact host cells (Figure 4c).
Figure 4 Effect of Ru265 on Trypanosoma cruzi. (a) Effect of Ru265 on epimastigote growth. […] After 1 h of incubation at 37 °C, the cells were washed, and the number of attached trypomastigotes was counted. […] After 4 h of incubation at 37 °C, the cells were washed, and the number of intracellular parasites was counted. […] (f) Routine respiration (initial oxygen flux values), leak respiration after the addition of 0.5 µg/mL of oligomycin A, and electron transfer system (ETS) capacity after the sequential additions of FCCP (0.2 μM each) were measured for each condition. […] (g) Representative experiment showing mitochondrial Ca^2+ uptake by intact epimastigotes in relative fluorescence units (RFU). […] (h) Changes in fluorescence (before and after ionomycin addition) from three experiments like that shown in panel (g). […]

[2] = test system: T. cruzi epimastigotes (intact, non-permeabilized); test: Mitochondrial Ca2+ uptake in intact epimastigotes using Rhod-2 AM; assay type: cell-based, Trypanosoma cruzi
Description: Figure 4 Effect of Ru265 on Trypanosoma cruzi. (a) Effect of Ru265 on epimastigote growth. Growth of control epimastigotes in LIT medium in the presence of 1 μM, 5 μM, and 10 μM Ru265. (b) Effect of Ru265 on trypomastigote attachment. Trypomastigotes were pretreated for 30 min with 1 μM antimycin A (AA) or 10 μM Ru265 and added to glutaraldehyde-fixed Vero cells. After 1 h of incubation at 37 °C, the cells were washed, and the number of attached trypomastigotes was counted. […] (c) Effect of Ru265 on trypomastigotes infection. Trypomastigotes were pretreated for 30 min with 1 μM antimycin A or 10 μM Ru265 and added to Vero cells. After 4 h of incubation at 37 °C, the cells were washed, and the number of intracellular parasites was counted. […] (f) Routine respiration (initial oxygen flux values), leak respiration after the addition of 0.5 µg/mL of oligomycin A, and electron transfer system (ETS) capacity after the sequential additions of FCCP (0.2 μM each) were measured for each condition. […] (g) Representative experiment showing mitochondrial Ca^2+ uptake by intact epimastigotes in relative fluorescence units (RFU). […] (h) Changes in fluorescence (before and after ionomycin addition) from three experiments like that shown in panel (g). […]

In the case of N.N.N.N.N.N.N.N.[Cl][Ru+3].[N-]=[Ru][Cl] [Ru265], the Toxicity to epimastigotes [1] is reported as “nontoxic at the concentrations tested”, the “Effect on growth rate of epimastigotes” value ([1]; control epimastigotes) is reported as “does not affect the growth rate” and the “Amount of Ca2+ taken up by mitochondria of intact cells (Rhod-2 fluorescence)” value ([2]; 50 µM Ru265 for 30 min, nigericin + ionomycin, three experiments) is reported as “no significant difference”. For the same compound, the “Permeability in trypanosomes (inferred from lack of effect on intact cells)” value ([2]; intact epimastigotes) was “low permeability”.
